Tests used:
primary human T cells = test: T cell activation and cytokine secretion assay (LEGENDplex); assay type: cell-based
Description: Peripheral blood mononuclear cells (PBMCs) were isolated from whole blood by ficoll density separation. Briefly, blood was diluted 1:2 with 0.5 mM EDTA solution in PBS, loaded onto a Ficoll-filled Leucosep tube (Greiner Bio-One), and centrifuged for 20 minutes at 1000×g. After centrifugation, the leukocyte/PBMC layer on top of the separation medium was collected and sequentially washed three times with 0.5 mM EDTA solution in PBS. T cells were isolated from PBMCs using magnetic bead-based separation following vendor specification, e.g., Biolegend MojoSort Human CD4/CD8 Naïve T Cell Isolation Kit protocol. In brief, the PBMCs were labeled with biotinylated antibodies against cell surface receptors for cells not in the population of interest. The labeled cells are then captured by streptavidin-coated magnetic beads and removed by magnetic incubation. The uncaptured cells that flow through the magnetic separation are predominantly comprised of the population of interest, in this instance CD3+ T cells. T cells were stained with a 5 μM solution of Tag-it Violet™ dye (BioLegend) for 20 minutes protected from light. The stain was quenched by incubating the cells in cell culture medium containing 10% FBS (complete media). Stained cells were plated on tissue culture plates and sub-maximally activated with concanavalin A (con A) added to the culture medium. Cells were plated at 0.1×10^6 cells well. […] Cells were collected at 24, 48, and 72 hrs. Supernatants were collected at 24, 48, and 72 hrs and cytokine secretion was analyzed by flow cytometry using a LEGENDplex assay (BioLegend). In brief, following manufacturer's protocol, beads pre-coated with antibodies specific to various cytokines were incubated with cell supernatant. […] The beads were then stained and the captured cytokine composition assessed by flow cytometry.

[1] = tested on: T cells in the lymph node; test: Lymph node remodeling by hock injection, flow cytometry of lymph node cells; assay type: in vivo, C57BL/6J mice; conditions: hock injection of Haloperidol 48.5 nmol followed by quinpirole 0.1 nmol; 24 hours
Description: 24 hours after hock injection, brachial lymph nodes (LN) were harvested in culture medium (RPMI+10% FBS). LNs were transferred to 24-well tissue culture plates containing 0.5 mL LN digestion buffer (RPMI, 2% FBS, collagenase D (3.3 mg/mL), and DNAse I (40 ug/mL)). LN capsules were manually opened with two syringe (26G) needles and the LNs were incubated in digestion buffer for 15 minutes. Digested LNs were filtered with a 40 μNA cell strainer and tissues were smashed with the plunger of a 5 mL syringe. Collected cells were washed in culture medium and plated for assays. Total number of viable cells were assessed by staining with viability dye eFluor 780 (eBioscience). Surface markers of various immune cell subsets were analyzed by staining the cells with antibodies for cell identity (CD3, CD4, CD8, CD19), for the inflammatory marker CD69, and the migratory marker CCR7. The cells were then assayed by flow cytometry.

[2] = tested on: macrophages differentiated from CD14+ monocytes; test: Macrophage activation and cytokine secretion assay; assay type: cell-based, human; conditions: dilutions from 10 μM to 1 nM
Description: Peripheral blood mononuclear cells (PBMCs) were isolated from whole blood by ficoll density separation. Briefly, blood was diluted 1:2 with 0.5 mM EDTA solution in PBS, loaded onto a Ficoll-filled Leucosep tube (Greiner Bio-One), and centrifuged for 20 minutes at 1000×g. After centrifugation, the leukocyte/PBMC layer was collected and sequentially washed three times with 0.5 mM EDTA solution in PBS.
Monocytes (CD14+) were isolated from PBMCs using magnetic bead-based separation following vendor specifications, e.g., Biolegend MojoSort Human CD14 Selection Kit protocol. In brief, PBMCs were labeled with biotinylated antibodies against cell surface receptors for cells not in the population of interest. The labeled cells are then captured by streptavidin-coated magnetic beads and removed by magnetic incubation. The uncaptured cells that flow through the magnetic separation are predominantly comprised of the population of interest, in this case CD14+ monocytes.
Monocytes were differentiated into macrophages by culturing in DMEM complete medium containing 10% FBS for seven days in the presence of 40 ng/mL human M-CSF. Media was changed on day 1 and day 4. On Day 4, macrophages were polarized to various subtypes as follows: M0—incubated with 40 ng/mL M-CSF; M1—cultured with 40 ng/mL M-CSF, 20 ng/mL IFNγ, and 50 ng/mL LPS; M2—incubated with 40 ng/mL M-CSF, 20 ng/mL 1L4, 20 ng/mL IL10, and 20 ng/mL TFGB. On day 7, cells were harvested by scraping them from the tissue culture plates and transferring them to 96-well plates.
Supernatants were collected at 24, 48, and 72 hrs and cytokine secretion was analyzed by flow cytometry using a LEGENDplex assay (BioLegend). In brief, following manufacturer's protocol, beads that are pre-coated with antibodies specific to various cytokines were incubated with cell supernatant. […] The beads were then stained and the captured cytokine composition assessed by flow cytometry.
M1 macrophage polarization is defined as increase in production of IL-12, TNF, IL-6, IL-8, IL-1B, MCP-1 and CCL2. Additionally, markers of M1 polarization that can be detected by RNA include Nos2. M2 polarization is defined as increase in IL-10 and/or a decrease in the M1 cytokines listed above. Additionally, markers of M2 polarization that can be detected by RNA include Arg1, IDO, PF4, CCL24, IL10, and IL4Ralpha.

[3] = tested on: Primary Natural Killer (NK) cells; test: NK cell ADCC assay with trastuzumab-coated Her2 expressing target cells; assay type: cell-based, human; conditions: for ADCC of NK cells treated with metaproterenol alone relative to NK cells pre-treated with this antagonist prior to the agonist: antagonist pre-treatment prior to metaproterenol
Description: Primary Natural Killer (NK) cells are isolated from human peripheral blood using a magnetic bead-based separation kit that negatively selects NK cells by sequestering other defined cell types (T, B, monocytes, etc.). Isolated NK cells are incubated with a target cell line, for example a Her2 expressing cancer cell line that has been pre-coated with trastuzumab, an anti-Her2 antibody, at a range of target-to-effector cell ratios. Following antibody-dependent cell cytotoxicity (ADCC)—antibody-mediated killing of the target cells by the NK cells, the number of surviving target cells is assessed by a fluorescent viability stain.

[4] = low sub-nanomolar concentrations, 72 hours post treatment
[5] = T cells from two different donors, multiple time points

**Q.** Which “production of the pro-survival cytokine IL-2” value (primary human T cells; 24 and 48 hours post stimulation, nanomolar concentrations) does the source give for NCCc1ccc(O)c(O)c1 [dopamine] here?
**A.** increase

**Q.** And the “production of the pro-inflammatory cytokine IL-5” value (primary human T cells; [4])?
**A.** increase

**Q.** What about the “production of the pro-inflammatory cytokine IL-6” value (primary human T cells; [4]) of the same compound?
**A.** increase

**Q.** And the “production of the pro-inflammatory cytokine IL-10” value (primary human T cells; [4])?
**A.** increase

**Q.** What about the “production of the pro-inflammatory cytokine IL-13” value (primary human T cells; [4]) of the same compound?
**A.** increase

**Q.** What about the “production of the pro-inflammatory cytokine IFNγ” value (primary human T cells; low sub-nanomolar concentrations, 72 hours post treatment, con A sub-maximally activated T cells) of the same compound?
**A.** increase

**Q.** O=C(CCCN1CCC(O)(c2ccc(Cl)cc2)CC1)c1ccc(F)cc1 [haloperidol] was tested. Which “effect of antagonist pre-treatment on the quinpirole-induced increase of CCR7+ T cells in the lymph node” value [1] did it give?
**A.** inhibited

**Q.** With CC(C)NCC(O)c1ccc(O)c(O)c1 (stereo not drawn) [isoproterenol] as the compound, how does the “production of pro-inflammatory cytokine IFNγ” value (primary human T cells; T cells from two different donors, 72 hours (FIG. 6A)) read?
**A.** decreased

**Q.** And the “production of pro-inflammatory cytokine TNFα” value (primary human T cells; T cells from two different donors, 72 hours (FIG. 6B))?
**A.** decreased

**Q.** What about the “production of pro-inflammatory cytokine IL-10” value (primary human T cells; T cells from two different donors, 72 hours (FIG. 6C)) of the same compound?
**A.** decreased

**Q.** What about the “amount of pro-inflammatory cytokine IL-10” value (primary human T cells; [5]) of the same compound?
**A.** decrease

**Q.** And the “production of pro-inflammatory cytokine IFNγ” value (primary human T cells; [5])?
**A.** decrease

**Q.** And the “production of pro-inflammatory cytokine TNFα” value (primary human T cells; [5])?
**A.** decrease

**Q.** What about the “transcript of NOS2” value ([2]; M1 marker) of the same compound?
**A.** decrease

**Q.** And the “transcripts for Arg1” value ([2]; M2 marker)?
**A.** increase

**Q.** And the “transcripts for IL-10” value ([2]; M2 marker)?
**A.** increase

**Q.** What about the “macrophage polarization (M1 or M2 phenotype)” value [2] of the same compound?
**A.** polarized toward an M2 phenotype

**Q.** Which “ADCC induced by agonist-treated NK cells, compared with NK cells pre-treated with a beta adrenergic antagonist prior to the agonist” value ([3]; surviving target cells by fluorescent viability stain) does the source give for CC(C)NCC(O)c1cc(O)cc(O)c1 (stereo not drawn) [metaproterenol] here?
**A.** significantly less ADCC

**Q.** How did the “ADCC of NK cells treated with metaproterenol alone relative to NK cells pre-treated with this antagonist prior to the agonist” value [3] turn out when CC(C)(C)NCC(O)COc1cccc2c1CC(O)C(O)C2 (stereo not drawn) [nadolol] was run?
**A.** significantly less ADCC

**Q.** With CC(C)NCC(O)COc1cccc2ccccc12 (stereo not drawn) [propranolol] as the compound, how does the “ADCC of NK cells treated with metaproterenol alone relative to NK cells pre-treated with this antagonist prior to the agonist” value [3] read?
**A.** significantly less ADCC

**Q.** neuropeptide Y was tested. Which “cytokine IL-4” value (primary human T cells; sub-nanomolar concentrations, 48 hours post-treatment) did it give?
**A.** increase

Source: patent publication US20210154272A1, “NEUROMODULATING COMPOSITIONS AND RELATED THERAPEUTIC METHODS FOR THE TREATMENT OF CANCER BY MODULATING AN ANTI-CANCER IMMUNE RESPONSE” (Flagship Pioneering Innovations V, Inc., priority 2016, published 2021)
